From patent US9855220B2, “Methods of treating pancreatic cancer” (priority 2013, dated 2018)

Key:
[1] = system: patients with locally advanced pancreatic cancer; conditions: cited from earlier work
[2] = system: patients with metastatic adenocarcinoma of the pancreas; assay: MPACT phase 3 study: time to treatment failure; format: in vivo, human
Procedure: (§1) The primary efficacy endpoint was overall survival (OS). […] 3.0 (NCI CTCAE).
(§2) Study endpoints were determined by analyzing the following criteria: (1) changes in serum CA 19-9 levels; (2) changes in plasma SPARC (secreted protein, acidic and rich in cysteine) levels; (3) time and duration of response (using RECIST v. 1.0); (4) disease control rate based on objective response or stable disease ≧16 weeks; (5) time to treatment failure; (6) progression-free survival and overall response rate by investigator; and (7) tumor response by PET scans using EORTC criteria and blinded radiology assessments. When assessing study endpoints, researchers examined correlations between objective tumor response as determined by CT and PET scans, molecular marker expression and efficacy, and objective tumor response as determined by PET, progression-free survival, CA 19-9 levels, SPARC levels and overall survival.

[3] = system: patients with metastatic adenocarcinoma of the pancreas; format: in vivo
Description: (§3) Patients who had not experienced disease progression were followed with regularly scheduled spiral CT/MRI scans every 8 weeks in both arms. Patients were followed for survival until death or study closure.

[4] = system: patients with metastatic adenocarcinoma of the pancreas; assay: MPACT phase 3 study: objective tumor response and disease control rate (RECIST v. 1.0); format: in vivo, human
Procedure: as §1
(§4) 1 interim survival analysis was planned for futility.
as §2

[5] = system: pancreatic cancer; conditions: in vivo; cited from earlier work
[6] = system: patients with metastatic adenocarcinoma of the pancreas; assay: MPACT phase 3 study: progression-free survival (independent radiological review, investigator review); format: in vivo, human; conditions: for Progression-free rate (%): independent radiological review
Procedure: as §1, §4, §2

[7] = system: patients with metastatic adenocarcinoma of the pancreas; assay: MPACT phase 3 study: overall survival; format: in vivo, human; conditions: for median overall survival: intent-to-treat population; for Median OS 95% CI (months): intent-to-treat
Description: as §3
The 1:1 randomization was stratified by: (1) Karnofsky performance status (PS) (70-80 versus 90-100); (2) Region (Australia, North America, Eastern/Western Europe); (3) Presence of liver metastasis (Yes vs. No).
(§5) The primary efficacy endpoint was overall survival (OS). Secondary efficacy endpoints were progression-free survival (PFS) (measured by blinded, independent radiology assessments done at 8 weeks), objective tumor response according to Response Evaluation Criteria in Solid Tumors (RECIST v. 1.0) based on Spiral computed tomography (CT) scans/magnetic resonance imaging (MRI). Other endpoints included were progression-free survival and objective response rate (ORR) by investigator review, disease control rate (DCR), time to failure (TTF), and safety/tolerability by National Cancer Institute Common Terminology Criteria for Adverse Events v. 3.0 (NCI CTCAE).
(§6) The sample size was increased prior to the interim analysis to increase the power from 80% to 90% (842 patients, 608 events) to detect a hazard ratio (HR) of 0.769 (2-sided α:0.049). 1 interim survival analysis was planned for futility. The intent-to-treat (ITT) population was evaluated for efficacy, the treated population for safety. Treatment differences in overall survival and progression-free survival were tested using stratified log-rank; objective response rates were tested using the chi-squared test.

[8] = system: patients with metastatic adenocarcinoma of the pancreas
Description: as §3, §5, §6

[9] = independent radiological review
[10] = number of patients (% of arm), N = 431 vs N = 430
[11] = best response by blinded assessment
[12] = best response by blinded assessment / independent review
[13] = treated population, N = 421 vs N = 402

O=c1[nH]cc(F)c(=O)[nH]1 [5-FU, 5-fluororuracil]
median overall survival [1]: 4.2 months | median time to disease progression [1]: 0.9 months

Nc1ccn([C@@H]2O[C@H](CO)[C@@H](O)C2(F)F)c(=O)n1 [Gemcitabine, gemcitabine]
Median TTF [2, 9]: 3.6 months | Patients with Treatment Failure, % [2, 9]: 94% | Patients Censored, % ([2]; time to treatment failure analysis): 6% | Patients with ≧1 Dose Reduction, %: gemcitabine ([3]; gemcitabine component): 33% | Reason for Therapy Discontinuation: Adverse Events [3, 10]: 73 (17%) | Reason for Therapy Discontinuation: Adverse Events Related to Study Drug [3, 10]: 29 (7%) | Reason for Therapy Discontinuation: Progressive Disease [3, 10]: 245 (57%) | median overall survival [1]: 5.7 months | median time to disease progression [1]: 2.1 months | Not evaluable, % [4, 11]: 39% | Progressive Disease, % [4, 11]: 26% | Stable Disease, % [4, 11]: 28% | Complete Response, % [4, 12]: 0% | Partial Response, % [4, 12]: 7% | ORR, blinded (independent radiological) assessment ([4]; confirmed complete or partial response, ITT): 7% | ORR, investigator assessment ([4]; in vivo): 8% | Stable Disease ≧16 weeks, % ([4]; independent review): 26% | DCR (disease control rate) by independent review ([4]; objective response or stable disease ≧16 weeks): 33% | median overall survival [5]: 6.0 months | median progression free survival [5]: 3.5 months | N/Events, PFS by independent radiological review ([6]; ITT): 430/265 | Median Progression-Free Survival by independent radiological review ([6]; ITT population): 3.7 months | Progression-free rate (%) ([6]; at 6 month): 25% | Progression-free rate (%) ([6]; at 9 month): 14% | Progression-free rate (%) ([6]; at 12 month): 9% | Progression-free rate (%) ([6]; at 15 month): 9% | Median Progression-Free Survival by investigator review ([6]; in vivo): 3.5 months | N/Events, PFS by investigator review ([6]; in vivo): 430/348 | Patients Died, % ([7]; ITT): (83%) | Median OS, sensitivity analysis ([7]; censor at time of 2nd line therapy): 6.8 Months | median overall survival [7]: 6.7 (6.01-7.23) months | median overall survival ([7]; listed as gemcitabine): 6.7 months | Median OS 95% CI (months) ([7]; subgroup Geographic Region: Eastern Europe): 5.9 (4.67, 7.46) months | Median OS 95% CI (months) ([7]; subgroup Geographic Region: North America): 6.8 (6.01, 7.52) months | Median OS 95% CI (months) ([7]; subgroup Geographic Region: Western Europe): 6.9 (5.09, —)^ months | Median OS 95% CI (months) ([7]; subgroup Pancreatic Cancer Primary Location: Head): 6.5 (5.55, 7.29) months | Median OS 95% CI (months) ([7]; subgroup Pancreatic Cancer Primary Location: Other): 6.9 (5.98, 7.52) months | % survival ([7]; time point 6 month): 55% | % survival ([7]; time point 9 month): 36% | % survival ([7]; time point 12 month (1-year survival rate)): 22% | % survival ([7]; time point 18 month): 9% | % survival ([7]; time point 24 month (2-year survival rate)): 4% | Febrile Neutropenia (any grade), % ([8]; human, in vivo): 1% | Grade ≧3 Anemia, % ([8]; human, in vivo): 12% | Grade ≧3 Diarrhea, % ([8]; human, in vivo): 2% | Grade ≧3 Fatigue, % ([8]; human, in vivo): 7% | Grade ≧3 Leukopenia, % ([8]; human, in vivo): 16% | Grade ≧3 Neuropathy, Time to Improvement by 1 grade, median ([8]; human, in vivo): 29 days | Grade ≧3 Neuropathy, Time to Onset, median ([8]; human, in vivo): 113 days | Grade ≧3 Neutropenia, % ([8]; human, in vivo): 27% | Grade ≧3 Peripheral neuropathy, % ([8]; human, in vivo): <1% | Grade ≧3 Thrombocytopenia, % ([8]; human, in vivo): 9% | Myelosuppression: ANC, NCI CTCAE Grade 3 ([8]; human, in vivo): 82 (21) n (%) | Myelosuppression: ANC, NCI CTCAE Grade 4 ([8]; human, in vivo): 21 (5) n (%) | Myelosuppression: Hemoglobin, NCI CTCAE Grade 3 ([8]; human, in vivo): 42 (11) n (%) | Myelosuppression: Hemoglobin, NCI CTCAE Grade 4 ([8]; human, in vivo): 6 (2) n (%) | Myelosuppression: Platelet Count, NCI CTCAE Grade 3 ([8]; human, in vivo): 28 (7) n (%) | Myelosuppression: Platelet Count, NCI CTCAE Grade 4 ([8]; human, in vivo): 8 (2) n (%) | Subjects with at least one AE with Action of Study Drug Permanently Discontinued ([8]; human, in vivo): 95 (24%) n (%) | Treatment Emergent AEs Resulting in Treatment Discontinuation: Blood & Lymphatic ([8]; human, in vivo): 16 (4%) n (%) | Treatment Emergent AEs Resulting in Treatment Discontinuation: Gastrointestinal disorders ([8]; human, in vivo): 22 (5%) n (%) | Treatment Emergent AEs Resulting in Treatment Discontinuation: General Disorders/Administration Site Condition ([8]; human, in vivo): 18 (4%) n (%) | Treatment Emergent AEs Resulting in Treatment Discontinuation: Infections and infestations ([8]; human, in vivo): 11 (3%) n (%) | Treatment Emergent AEs Resulting in Treatment Discontinuation: Nervous System ([8]; human, in vivo): 7 (2%) n (%) | Treatment Emergent AEs Resulting in Treatment Discontinuation: Respiratory, Thoracic and mediastinal disorders ([8]; human, in vivo): 15 (4%) n (%) | Treatment-Emergent Grade 3 or Higher AE: Abdominal pain ([8]; human, in vivo): 32 (8%) | Treatment-Emergent Grade 3 or Higher AE: Anemia ([8]; human, in vivo): 32 (8%) | Treatment-Emergent Grade 3 or Higher AE: Asthenia ([8]; human, in vivo): 17 (4%) | Treatment-Emergent Grade 3 or Higher AE: Dehydration ([8]; human, in vivo): 10 (2%) | Treatment-Emergent Grade 3 or Higher AE: Diarrhea ([8]; human, in vivo): 6 (1%) | Treatment-Emergent Grade 3 or Higher AE: Fatigue ([8]; human, in vivo): 37 (9%) | Treatment-Emergent Grade 3 or Higher AE: Leukopenia ([8]; human, in vivo): 15 (4%) | Treatment-Emergent Grade 3 or Higher AE: Nausea ([8]; human, in vivo): 14 (3%) | Treatment-Emergent Grade 3 or Higher AE: Neutropenia ([8]; human, in vivo): 85 (21%) | Treatment-Emergent Grade 3 or Higher AE: Peripheral neuropathy ([8]; human, in vivo): 3 (1%) | Treatment-Emergent Grade 3 or Higher AE: Pulmonary Embolism ([8]; human, in vivo): 26 (6%) | Treatment-Emergent Grade 3 or Higher AE: Thrombocytopenia ([8]; human, in vivo): 33 (8%) | Treatment-Emergent Grade 3 or Higher AE: Vomiting ([8]; human, in vivo): 15 (4%) | Pt with at least 1 AE leading to death, % ([8]; treated population): 4% | Subject with at Least 1 Treatment Related AE with Outcome of Death [8, 13]: 18 (4%) n (%) | Treatment Emergent AEs with Outcome of Death: Cardiac Disorders [8, 13]: 3 (1%) n (%) | Treatment Emergent AEs with Outcome of Death: Gastrointestinal disorders [8, 13]: 3 (1%) n (%) | Treatment Emergent AEs with Outcome of Death: General disorders and administration site conditions [8, 13]: 3 (1%) n (%) | Treatment Emergent AEs with Outcome of Death: Hepatobiliary disorders [8, 13]: 1 (<1%) n (%) | Treatment Emergent AEs with Outcome of Death: Infections and infestations [8, 13]: 3 (1%) n (%) | Treatment Emergent AEs with Outcome of Death: Neoplasm Progression [8, 13]: 2 (<1%) n (%) | Treatment Emergent AEs with Outcome of Death: Nervous system disorders [8, 13]: 2 (<1%) n (%) | Treatment Emergent AEs with Outcome of Death: Renal and urinary disorders [8, 13]: 1 (<1%) n (%) | Treatment Emergent AEs with Outcome of Death: Respiratory, thoracic and mediastinal disorders [8, 13]: 3 (1%) n (%)
